The values that follow are results of earlier work, collected in patent US8097283B2, “Methods and compositions for imaging” (Mount Sinai School of Medicine, priority 2004, dated 2012).

Where two headings read alike, the source gives them in different places.

For data set [1] the following is noted: 0.5 T, 37° C.
Assay in data set [2]: not given
This is another data set of the same source.

The conditions of data set [3]: mouse.

Consider `O=C([O-])CN1CCN(CC(=O)[O-])CCN([C@H](CO)[C@H](O)CO)CCN(CC(=O)[O-])CC1.[Gd+3]` (racemic) [Gadobutrol, Gd-DO3A-butrol], for which, in data set [1], the r1 is 3.6 mM⁻¹ s⁻¹.
`CNC[C@H](O)[C@@H](O)[C@H](O)[C@H](O)CO.CNC[C@H](O)[C@@H](O)[C@H](O)[C@H](O)CO.O=C([O-])CN(CCN(CC(=O)[O-])CC(=O)O)CCN(CC(=O)O)C(COCc1ccccc1)C(=O)[O-].[Gd+3]` (stereo not drawn) [Gadobenate, Gd-BOPTA]: the r1 in data set [1] was 4.4 mM⁻¹ s⁻¹.
On to `O=C([O-])CN(CCN(CC(=O)[O-])CC(=O)O)CCN(CC(=O)[O-])CC(=O)O.[Gd+3]` [Gadopenetate, Gd-DTPA], for which the r1 in data set [1] is 3.8 mM⁻¹ s⁻¹. Moreover, the Viscosity (concentration 0.5M) is recorded as 2.9 cP. Also, the Osmolality in data set [2] (concentration 0.5M) is reported as 1.96 osmol/kg.
`O=C([O-])CN1CCN(CC(=O)[O-])CCN(CC(=O)[O-])CCN(CC(=O)[O-])CC1.[Gd+3]` [Gadoterate, Gd-DOTA]: the r1 in data set [1] is 3.6 mM⁻¹ s⁻¹.
As for Gd-DTPA-BMEA [Gadoversetamide], the r1 in data set [1] was 4.7 mM⁻¹ s⁻¹.
For Gd-HPDO3A [Gadoteridol], in data set [1], the r1 was 3.7 mM⁻¹ s⁻¹.
On to Mn-DPDP [Mangafodipir], for which the r1 in data set [1] is 1.9 mM⁻¹ s⁻¹. The Viscosity (concentration 0.01M) is reported as 0.7 cP. Besides, the Osmolality in data set [2] (concentration 0.01M) is listed as 0.29 osmol/kg.

B1: HDL-apoAI: apoAI moiety of HDL in the circulation of a mouse (protein, UniProt Q00623 25-264, looked up)
Apolipoprotein A-I: DEPQSQWDKVKDFANVYVDAVKDSGRDYVSQFESSSLGQQLNLNLLENWDTLGSTVSQLQERLGPLTRDFWDNLEKETDWVRQEMNKDLEEVKQKVQPYLDEFQKKWKEDVELYRQKVAPLGAELQESARQKLQELQGRLSPVAEEFRDRMRTHVDSLRTQLAPHSEQMRESLAQRLAELKSNPTLNEYHTRAKTHLKTLGEKARPALEDLRHSLMPMLETLKTQVQSVIDKASETLTAQ
Turning to B1, in data set [3], the “t1/2 in the circulation” value was “roughly 10 h”.
